Structures are written as SMILES.

One test deals with HCT116-CMVp-Luc cells. Nature of the test: Xenograft mouse model of liver metastasis, intrasplenic transplantation, bioluminescence imaging. The format is in vivo, SCID-beige mice. Particulars: daily p.o.; statin 1.5 mg/kg, niclosamide 164 mg/kg, alone or combined; vs solvent. On the procedure: Severe combined immunodeficiency (SCID)-beige mice (n=10 per group) were intrasplenically transplanted with HCT116-CMVp-Luc cells and treated daily with solvent, 13 mg/kg atorvastatin or fluvastatin (p.o.), 328 mg/kg niclosamide (p.o.) or the combination of niclosamide with one of the statins, at the indicated doses. These doses correspond to the maximum human doses established for the statins and niclosamide. Metastasis to the liver was analyzed with bioluminescence imaging after an intraperitoneal application of 150 mg/kg D-Luciferin at the experimental endpoint. Following whole animal imaging livers were removed and analyzed as isolated organs.
Severe combined immunodeficiency (SCID)-beige mice (n=10 per group) were intrasplenically transplanted with HCT116-CMVp-Luc cells and treated daily with solvent, 1.5 mg/kg atorvastatin or fluvastatin (p.o.), 164 mg/kg niclosamide (p.o.) or the combination of niclosamide with one of the statins, at the indicated doses. These doses therefore correspond to 12.5% of the maximum human dose for the statins and 50% of the maximum human dose for niclosamide. Metastasis to the liver was analyzed with bioluminescence imaging after an intraperitoneal application of 150 mg/kg D-Luciferin at the experimental endpoint. Following whole animal imaging livers were removed and analyzed as isolated organs.
All experiments were performed in accordance with the United Kingdom Coordinated Committee on Cancer Research (UKCCCR) guidelines and approved by the responsible local authorities (State Office of Health and Social Affairs, Berlin, Germany). For in vivo drug testing a xenograft mouse model was used as described earlier (Stein 2009 Nat Med, Sack 2011 J Natl Cancer Inst,
Juneja & Kobelt 2017 Plos Biol). In brief, HCT116-CMVp-LUC cells (5×10^5 cells per mouse, resuspended in 50 μL PBS) were intrasplenically transplanted into 6-week-old female SCID beige (SCID bg/bg) mice. The animals were assigned randomly into treatment groups.
Drugs were administered as a suspension using a gavage tube. Both niclosamide (either 328 mg/kg or 164 mg/kg) and a statin (atorvastatin or fluvastatin, at 13 mg/kg or 1.5 mg/kg) were administered daily, orally. Control mice were treated with the appropriate volume of solvent solution. The in vivo experimentation and luminescence imaging were conducted as described below.
For luminescence imaging, mice were anesthetized with 5% Isoflurane and received intraperitoneally 150 mg/kg D-luciferin (Biosynth, Staad, Switzerland) dissolved in sterile PBS. Anesthesia was maintained with 2% isoflurane. Imaging was performed with the NightOWL LB 981 system (Berthold Technologies, Bad Wildbad, Germany). ImageJ version 1.48v (NIH, Bethesda, Md.) was used for color coding of signal intensity (presenting a 256 grayscale) and overlay pictures.
`CC(C)n1c(/C=C/[C@H](O)C[C@H](O)CC(=O)O)c(-c2ccc(F)cc2)c2ccccc21` (racemic) [fluvastatin]: the “Metastasis formation to the liver (luminescence), reduced dose” value (shortened to “Metastasis formation … reduced dose”) is given as “no reduction in metastasis formation”.

Consider `O=C(Nc1ccc([N+](=O)[O-])cc1Cl)c1cc(Cl)ccc1O` [niclosamide, 5-Chloro-N-(2-chloro-4-nitrophenyl)-2-hydroxybenzamide], for which the “Metastasis formation … reduced dose” value is on record as “no reduction in metastasis formation”.

Regarding `CC(C)c1c(C(=O)Nc2ccccc2)c(-c2ccccc2)c(-c2ccc(F)cc2)n1CC[C@@H](O)C[C@@H](O)CC(=O)O` [atorvastatin], the “Metastasis formation … reduced dose” value is listed as “no reduction in metastasis formation”.

The same test, now with this note: daily p.o.; statin 13 mg/kg, niclosamide 328 mg/kg, alone or combined; vs solvent.
For `CC(C)n1c(/C=C/[C@H](O)C[C@H](O)CC(=O)O)c(-c2ccc(F)cc2)c2ccccc21` (racemic) [fluvastatin], the “Metastasis formation to the liver (luminescence), maximum human dose equivalent” value is recorded as “significantly reduced”.

On to `O=C(Nc1ccc([N+](=O)[O-])cc1Cl)c1cc(Cl)ccc1O` [niclosamide, 5-Chloro-N-(2-chloro-4-nitrophenyl)-2-hydroxybenzamide], for which the “Metastasis formation to the liver (luminescence), maximum human dose equivalent” value is reported as “significantly reduced”.

Take `CC(C)c1c(C(=O)Nc2ccccc2)c(-c2ccccc2)c(-c2ccc(F)cc2)n1CC[C@@H](O)C[C@@H](O)CC(=O)O` [atorvastatin]: the “Metastasis formation to the liver (luminescence), maximum human dose equivalent” value was “significantly reduced”.

In another test the test system is MACC1. As to the kind of experiment: MACC1 mRNA expression by qRT-PCR in statin-treated HCT116 cells. The format is cell-based, human. Particulars: 1-10 μM statin, 24 h, relative to DMSO treated control. Here is the method:
(§1) HCT116 cells were treated with increasing amounts (1-10 μM) of different, clinically relevant statins dissolved in DMSO. Following 24 h of treatment cells were harvested for RNA and protein isolation. MACC1 mRNA expression was analyzed by qRT-PCR and is expressed relative to DMSO treated control samples. Protein amounts were analyzed by western blot.
(§2) HCT116, SW620 and SW480 colorectal carcinoma cells were purchased from ATCC. HCT116 cells were stably transduced with GFP/ MACC1-GFP plasmids to produce MACC1 overexpressing cell lines and SW620 cells were stably transduced by sh-control/sh-MACC1 plasmids to produce MACC1 knockdown cell lines. SW480 stable MACC1 overexpressing cell lines were created using pCDNA3.1 MACC1 plasmids and the control cells were produced using pCDNA3.1 empty plasmids followed clone selection using Gentamycin (Gibco). Knock-out of MACC1 in SW620 cells was achieved by CRISPR-Cas9 based gene editing followed by Puromycin (Gibco) based selection and subsequently the clones were picked using single cell sorting. Cells were cultured in RPMI supplemented with 10% FCS in 5% CO2 humidified atmosphere and sub passaged 2-3 times a week to maintain cultures subconfluent. Drugs were solubilized in DMSO, stock concentrations were 2 mM for niclosamide (Sigma-Aldrich, St Louis, Mo., USA), 2 mM for GSK1120212 (trametinib, Selleck Chemicals, Munich, Germany) and selumetinib (AZD6244, Selleck Chemicals, Munich, Germany) and 10 mM for statins (atorvastatin, lovastatin, fluvastatin, TCI Deutschland GmbH, Eschborn, Germany). All drugs were pre-diluted to 1000× final concentration in DMSO. Control cells were treated with equal amounts of DMSO.
RNA was isolated using the Gene Matrix Universal RNA Purification Kit (EURx, Poland) according to the manufacturer's instructions. RNA was quantified and 50 ng of RNA was reverse transcribed using a reaction mix containing MuLV reverse transcriptase, 10 mM MgCl2, 1× PCR-Buffer, 250 μM pooled dNTPs, 1U RNAse inhibitor and random hexamers (all from Applied Biosystems). The reaction was performed at 42° C. for 15 min, 99° C. for 5 min and subsequent cooling at 4° C. for 5 min. The cDNA was amplified using SYBR Green chemistry (Promega) using the LightCycler 480 II system (Roche Diagnostics) at the following PCR conditions: 95° C. for 2 min followed by 45 cycles of 95° C. for 7 s, 60° C. for 10 s and 72° C. for 20 s. The primers used for quantification are as follows: MACC1 Fwd 5′-[…]-3′ and Rev 5′-[…]-3′; S100A4 Fwd 5′-[…]-3′ and Rev 5′- […]-3′. Data analysis was performed with LightCycler 480 Software release 1.5.0 SP3 (Roche Diagnostics). Mean values was calculated from RT-qPCR duplicates. Each mean value of the expressed gene was normalized to the respective RP-II cDNA. […]
(In qPCR the cycle at which signal appears reflects the starting amount.)
For the compound `CC[C@H](C)C(=O)O[C@H]1C[C@@H](C)C=C2C=C[C@H](C)[C@H](CC[C@@H]3C[C@@H](O)CC(=O)O3)[C@H]21` [lovastatin], the “MACC1 mRNA expression” value was “shown to reduce”.

Turning to `O=C(O)C[C@H](O)C[C@H](O)/C=C/c1c(C2CC2)nc2ccccc2c1-c1ccc(F)cc1` [Pitavastatin], the “MACC1 mRNA expression” value is given as “shown to reduce”.

For `CC(C)n1c(/C=C/[C@H](O)C[C@H](O)CC(=O)O)c(-c2ccc(F)cc2)c2ccccc21` (racemic) [fluvastatin], the “MACC1 mRNA expression” value is given as “shown to reduce”.

As to `CC(C)c1c(C(=O)Nc2ccccc2)c(-c2ccccc2)c(-c2ccc(F)cc2)n1CC[C@@H](O)C[C@@H](O)CC(=O)O` [atorvastatin], the “MACC1 mRNA expression” value was “shown to reduce”.

The subject of another test is MACC1. As to the kind of experiment: MACC1 protein by western blot in statin-treated HCT116 cells. Particulars: 1-10 μM statin, 24 h. The format is cell-based, human. Here is the method:
as §1, §2
Whole cell protein extraction was performed on 5×10^5 HCT116 and SW620 cells. Cells were lysed using RIPA buffer (50 mM Tris-HCT pH 7.5, 150 mM NaCl, 1% Nonidet P-40) supplemented with cOmplete Protease inhibitor (Roche) for 30 min at 4° C. The lysate was clarified and the protein content was measured using the BCA Kit (Pierce). 20 μg protein lysate were denatured with LDS-containing NuPage Loading buffer (invitrogen) and DTT for 10 min.
Proteins were then resolved in 10% SDS-PAGE followed by protein transfer onto PVDF membranes (BioRAD). The membrane was blocked with 5% w/v skim milk powder and 1% w/v BSA in TBST (10 mM Tris-HCL pH 8, 150 mM NaCl and 0.1% Tween 20) for 60 min. The membrane was incubated overnight with the respective primary antibodies (anti-MACC1, #HPA020081, Sigma Aldrich; S100A4, #5114, Dako and β-Actin, #31430, Invitrogen; Lamin B1, #12586s, Cell Signalling). The membranes were washed and further incubated with corresponding horseradish peroxidase-tagged secondary antibodies (anti-mouse IgG HRP-conjugated, #31430, Invitrogen and anti-rabbit IgG HRP-conjugated, #W4018, Promega) for 60 min. […]
As for `CC[C@H](C)C(=O)O[C@H]1C[C@@H](C)C=C2C=C[C@H](C)[C@H](CC[C@@H]3C[C@@H](O)CC(=O)O3)[C@H]21` [lovastatin], the MACC1 protein result is reported as “shown to reduce”.

Take `O=C(O)C[C@H](O)C[C@H](O)/C=C/c1c(C2CC2)nc2ccccc2c1-c1ccc(F)cc1` [Pitavastatin]: the MACC1 protein entry is reported as “shown to reduce”.

Consider `CC(C)n1c(/C=C/[C@H](O)C[C@H](O)CC(=O)O)c(-c2ccc(F)cc2)c2ccccc21` (racemic) [fluvastatin], for which the MACC1 protein result is on record as “shown to reduce”.

Regarding `CC(C)c1c(C(=O)Nc2ccccc2)c(-c2ccccc2)c(-c2ccc(F)cc2)n1CC[C@@H](O)C[C@@H](O)CC(=O)O` [atorvastatin], the MACC1 protein entry is recorded as “shown to reduce”.

The test system of the next test is HCT116 cells. As to the kind of experiment: Wound healing (scratch) assay, IncuCyte, with Loewe synergy calculation. In kind it is cell-based, human. Particulars: HCT116, three concentrations (statin 5/2.5/1.25 μM, niclosamide 1/0.5/0.25 μM), 48 h, vs DMSO. On the procedure:
For wound healing assays the HCT116 human colon cancer cell line was used. HCT116 cells are endogenously positive for MACC1 and S100A4 expression at the mRNA and protein level. In addition, they show decreased motility when either marker is inhibited. For wound healing (scratch) experiments cells were passaged to a density of 6×10^5 per ml and cultured for 48 h. Cells were then harvested and counted. For wound healing assays 1.2×10^5 cells were seeded in 100 μl RPMI supplemented with 10% FCS in 96 well Image Lock Plates (Essen Bioscience, Hertfordshire, UK). Cells were allowed to adhere for 6 hours. Wounds in the monolayer were applied using the IncuCyte WoundMaker (Essen Bioscience). After applying the wounds 100 μl of 2-fold concentrated drug solutions were added. DMSO treated and untreated samples served as controls. For each drug three different (niclosamide 1 μM, 0.5 μM and 0.25 μM, each statin 5 μM, 2.5 μM and 1.25 μM, MEK1 inhibitors 1 μM, 0.1 μM and 0.01 μM) concentrations and combinations thereof were applied, each in triplicate. Of all statins, we tested lovastatin, fluvastatin and atorvastatin. Wound closure was monitored every second hour in the IncuCyte system (Essen Bioscience). A pre-established image collection of HCT116 was used to teach the software detection of cells and wound. Wound confluency was expressed relative to DMSO treated controls. Synergy was analyzed using combenefit 2.021. DMSO treated samples were set to 100%. To calculate synergy, we used the Loewe isobole equation model. For the calculations dose-response curves for three single concentrations and the nine combinations thereof were used. The Loewe model was applied since there is a certain degree of target interaction already shown: first, active Wnt-signaling is important for MACC1 driving tumor progression and invasiveness (Lemos C, Clin Cancer Res, 2016) and second, S100A4 is a Wnt-signaling target gene and is found in the MACC1 induced secretome. The three single concentrations and nine combinations thereof were expressed relative to the control.
In the case of `CC[C@H](C)C(=O)O[C@H]1C[C@@H](C)C=C2C=C[C@H](C)[C@H](CC[C@@H]3C[C@@H](O)CC(=O)O3)[C@H]21` [lovastatin], the “Wound closure (cellular motility), single agents” value (shortened to “Wound closure (cellular motility)”) is “dose dependent reduction of wound closure ability”.

`CC(C)n1c(/C=C/[C@H](O)C[C@H](O)CC(=O)O)c(-c2ccc(F)cc2)c2ccccc21` (racemic) [fluvastatin]: the “Wound closure (cellular motility)” value was “dose dependent reduction of wound closure ability”.

For `O=C(Nc1ccc([N+](=O)[O-])cc1Cl)c1cc(Cl)ccc1O` [niclosamide, 5-Chloro-N-(2-chloro-4-nitrophenyl)-2-hydroxybenzamide], the “Wound closure (cellular motility)” value is given as “dose dependent reduction of wound closure ability”.

For the compound `CC(C)c1c(C(=O)Nc2ccccc2)c(-c2ccccc2)c(-c2ccc(F)cc2)n1CC[C@@H](O)C[C@@H](O)CC(=O)O` [atorvastatin], the “Wound closure (cellular motility)” value is recorded as “dose dependent reduction of wound closure ability”.

The values are drawn from patent publication US20220125807A1, “PHARMACEUTICAL COMBINATION OF WNT SIGNALING AND MACC1 INHIBITORS” (Max-Delbrück-Centrum für Molekulare Medizin in der …, priority 2019, published 2022).
